Patent publication US20250101436A1, “APTAMERS AND SMALL MOLECULE LIGANDS” (MeiraGTx UK II Limited, priority 2021, published 2025)

test system: N5-12G6 riboswitch; assay: Firefly luciferase assay, N5-12G6 riboswitch in HEK293 cells; conditions: 12G6 riboswitch, luciferase, HEK293, 2 μM

Fold induction 2 μM (HEK)	SMILES
43.5 fold	Fc1cc(CNc2cncc(Cl)c2N2CCNCC2)cc2nccnc12 [compound 077, 5-chloro-N-((8-fluoroquinoxalin-6-yl)methyl)-4-(piperazin-1-yl)pyridin-3-amine]

same assay, conditions: Homo sapiens, HEK293, read-out: Fold induction 2 μM (HEK), 12G6 riboswitch, luciferase, HEK293, 2 μM

SMILES	fold induction at 2 µM
C[C@@H]1CNCCN1c1ccncc1NCc1cc(F)c2nccnc2c1 [compound 065, (R)—N-((8-fluoroquinoxalin-6-yl)methyl)-4-(2-methylpiperazin-1-yl)pyridin-3-amine]	21.7
C[C@@H]1CNCCN1c1ccncc1NCc1cc(Cl)c2nccnc2c1 [compound 066, (R)—N-((8-chloroquinoxalin-6-yl)methyl)-4-(2-methylpiperazin-1-yl)pyridin-3-amine]	2
Fc1c(CNc2cnccc2N2CCNCC2)ccc2nccnc12 [compound 067, N-((5-fluoroquinoxalin-6-yl)methyl)-4-(piperazin-1-yl)pyridin-3-amine]	3.4
Cc1cc(CNc2cnccc2N2CCNCC2)cc2nccnc12 [compound 068, N-((8-methylquinoxalin-6-yl)methyl)-4-(piperazin-1-yl)pyridin-3-amine]	4.4
Cc1cc2nccnc2cc1CNc1cnccc1N1CCNCC1 [compound 069, N-((7-methylquinoxalin-6-yl)methyl)-4-(piperazin-1-yl)pyridin-3-amine]	28.3
Cc1c(CNc2cnccc2N2CCNCC2)cc2nccnc2c1C [compound 070, N-((7,8-dimethylquinoxalin-6-yl)methyl)-4-(piperazin-1-yl)pyridin-3-amine]	2.9
COc1cc(CNc2cnccc2N2CCNCC2)cc2nccnc12 [compound 071, N-((8-methoxyquinoxalin-6-yl)methyl)-4-(piperazin-1-yl)pyridin-3-amine]	6.1
COc1cc2nccnc2cc1CNc1cnccc1N1CCNCC1 [compound 072, N-((7-methoxyquinoxalin-6-yl)methyl)-4-(piperazin-1-yl)pyridin-3-amine]	19.6
Fc1cncc(NCc2ccc3nccnc3c2)c1N1CCNCC1 [compound 073, 5-fluoro-4-(piperazin-1-yl)-N-(quinoxalin-6-ylmethyl)pyridin-3-amine]	43.9
Brc1cncc(NCc2ccc3nccnc3c2)c1N1CCNCC1 [compound 074, 5-bromo-4-(piperazin-1-yl)-N-(quinoxalin-6-ylmethyl)pyridin-3-amine]	48.6
COc1cncc(NCc2ccc3nccnc3c2)c1N1CCNCC1 [compound 075, 5-methoxy-4-(piperazin-1-yl)-N-(quinoxalin-6-ylmethyl)pyridin-3-amine]	18.6
FC(F)c1cncc(NCc2ccc3nccnc3c2)c1N1CCNCC1 [compound 076, 5-(difluoromethyl)-4-(piperazin-1-yl)-N-(quinoxalin-6-ylmethyl)pyridin-3-amine]	117
Fc1c(CNc2cncc(Cl)c2N2CCNCC2)ccc2nccnc12 [compound 078, 5-chloro-N-((5-fluoroquinoxalin-6-yl)methyl)-4-(piperazin-1-yl)pyridin-3-amine]	6.1
Fc1cncc(NCc2ccc3nccnc3c2F)c1N1CCNCC1 [compound 079, 5-fluoro-N-((5-fluoroquinoxalin-6-yl)methyl)-4-(piperazin-1-yl)pyridin-3-amine]	4.4
Fc1cncc(NCc2cc(F)c3nccnc3c2)c1N1CCNCC1 [compound 080, 5-fluoro-N-((8-fluoroquinoxalin-6-yl)methyl)-4-(piperazin-1-yl)pyridin-3-amine]	31.2
Fc1cncc(NCc2cc(Cl)c3nccnc3c2)c1N1CCNCC1 [compound 081, N-((8-chloroquinoxalin-6-yl)methyl)-5-fluoro-4-(piperazin-1-yl)pyridin-3-amine]	3.9
Fc1cc2nccnc2cc1CNc1cncc(F)c1N1CCNCC1 [compound 082, 5-fluoro-N-((7-fluoroquinoxalin-6-yl)methyl)-4-(piperazin-1-yl)pyridin-3-amine]	24.7
Fc1cncc(NCc2cc3nccnc3cc2Cl)c1N1CCNCC1 [compound 083, N-((7-chloroquinoxalin-6-yl)methyl)-5-fluoro-4-(piperazin-1-yl)pyridin-3-amine]	12.8
Cc1cncc(NCc2cc(F)c3nccnc3c2)c1N1CCNCC1 [compound 084, N-((8-fluoroquinoxalin-6-yl)methyl)-5-methyl-4-(piperazin-1-yl)pyridin-3-amine]	66.4
Cc1cncc(NCc2cc(Cl)c3nccnc3c2)c1N1CCNCC1 [compound 085, N-((8-chloroquinoxalin-6-yl)methyl)-5-methyl-4-(piperazin-1-yl)pyridin-3-amine]	5.4
Cc1cncc(NCc2cc3nccnc3cc2F)c1N1CCNCC1 [compound 086, N-((7-fluoroquinoxalin-6-yl)methyl)-5-methyl-4-(piperazin-1-yl)pyridin-3-amine]	17.3
Cc1cncc(NCc2cc3nccnc3cc2Cl)c1N1CCNCC1 [compound 087, N-((7-chloroquinoxalin-6-yl)methyl)-5-methyl-4-(piperazin-1-yl)pyridin-3-amine]	20.9

SMILES	fold induction at 2 µM
Fc1cc(CNc2cnccc2N2CCCNCC2)cc2nccnc12 [compound 088, 4-(1,4-diazepan-1-yl)-N-((8-fluoroquinoxalin-6-yl)methyl)pyridin-3-amine]	2.6
Clc1cc(CNc2cnccc2N2CCCNCC2)cc2nccnc12 [compound 089, N-((8-chloroquinoxalin-6-yl)methyl)-4-(1,4-diazepan-1-yl)pyridin-3-amine]	4.8
Fc1cc2nccnc2cc1CNc1cnccc1N1CCCNCC1 [compound 090, 4-(1,4-diazepan-1-yl)-N-((7-fluoroquinoxalin-6-yl)methyl)pyridin-3-amine]	15
Clc1cc2nccnc2cc1CNc1cnccc1N1CCCNCC1 [compound 091, N-((7-chloroquinoxalin-6-yl)methyl)-4-(1,4-diazepan-1-yl)pyridin-3-amine]	28.4
Fc1cncc(NCc2ccc3nccnc3c2)c1N1CCCNCC1 [compound 092, 4-(1,4-diazepan-1-yl)-5-fluoro-N-(quinoxalin-6-ylmethyl)pyridin-3-amine]	34.9
Clc1cncc(NCc2ccc3nccnc3c2)c1N1CCCNCC1 [compound 093, 5-chloro-4-(1,4-diazepan-1-yl)-N-(quinoxalin-6-ylmethyl)pyridin-3-amine]	30.7
Cc1cncc(NCc2ccc3nccnc3c2)c1N1CCCNCC1 [compound 094, 4-(1,4-diazepan-1-yl)-5-methyl-N-(quinoxalin-6-ylmethyl)pyridin-3-amine]	35.1
Fc1cncc(NCc2cc(F)c3nccnc3c2)c1N1CCCNCC1 [compound 095, 4-(1,4-diazepan-1-yl)-5-fluoro-N-((8-fluoroquinoxalin-6-yl)methyl)pyridin-3-amine]	8.9
Fc1cncc(NCc2cc3nccnc3cc2Cl)c1N1CCCNCC1 [compound 096, N-((7-chloroquinoxalin-6-yl)methyl)-4-(1,4-diazepan-1-yl)-5-fluoropyridin-3-amine]	16.2
Clc1cc2nccnc2cc1CNc1cnccc1N1C[C@@H]2C[C@H]1CN2 [compound 097, 4-((1S,4S)-2,5-diazabicyclo[2.2.1]heptan-2-yl)-N-((7-chloroquinoxalin-6-yl)methyl)pyridin-3-amine]	2.6
Clc1cc2nccnc2cc1CNc1cnccc1N1C[C@H]2C[C@@H]1CN2 [compound 098, 4-((1R,4R)-2,5-diazabicyclo[2.2.1]heptan-2-yl)-N-((7-chloroquinoxalin-6-yl)methyl)pyridin-3-amine]	4.5
Clc1cc2nccnc2cc1CNc1cnccc1N1CC2CNCC2C1 (centres unmarked) [compound 099, N-((7-chloroquinoxalin-6-yl)methyl)-4-(hexahydropyrrolo[3,4-c]pyrrol-2(1H)-yl)pyridin-3-amine]	8.2
C[C@@H]1CNCCN1c1ccncc1NCc1cc2nccnc2cc1F [compound 100, (R)—N-((7-fluoroquinoxalin-6-yl)methyl)-4-(2-methylpiperazin-1-yl)pyridin-3-amine]	3.5
C[C@H]1CN(c2ccncc2NCc2cc(Cl)c3nccnc3c2)CCN1 [compound 101, (S)—N-((8-chloroquinoxalin-6-yl)methyl)-4-(3-methylpiperazin-1-yl)pyridin-3-amine]	2.2
C[C@H]1CN(c2ccncc2NCc2cc3nccnc3cc2F)CCN1 [compound 102, (S)—N-((7-fluoroquinoxalin-6-yl)methyl)-4-(3-methylpiperazin-1-yl)pyridin-3-amine]	13.6
C[C@H]1CN(c2c(F)cncc2NCc2ccc3nccnc3c2)CCN1 [compound 103, (S)-5-fluoro-4-(3-methylpiperazin-1-yl)-N-(quinoxalin-6-ylmethyl)pyridin-3-amine]	23.3
Cc1cncc(NCc2ccc3nccnc3c2)c1N1CCN[C@@H](C)C1 [compound 104, (S)-5-methyl-4-(3-methylpiperazin-1-yl)-N-(quinoxalin-6-ylmethyl)pyridin-3-amine]	33.3
Fc1cc(CNc2cnccc2O[C@@H]2CCNC2)cc2nccnc12 [compound 105, (R)—N-((8-fluoroquinoxalin-6-yl)methyl)-4-(pyrrolidin-3-yloxy)pyridin-3-amine]	37.7
Clc1cc(CNc2cnccc2O[C@@H]2CCNC2)cc2nccnc12 [compound 106, (R)—N-((8-chloroquinoxalin-6-yl)methyl)-4-(pyrrolidin-3-yloxy)pyridin-3-amine]	22.2
Fc1cc2nccnc2cc1CNc1cnccc1O[C@@H]1CCNC1 [compound 107, (R)—N-((7-fluoroquinoxalin-6-yl)methyl)-4-(pyrrolidin-3-yloxy)pyridin-3-amine]	48.7
Clc1cc2nccnc2cc1CNc1cnccc1O[C@@H]1CCNC1 [compound 108, (R)—N-((7-chloroquinoxalin-6-yl)methyl)-4-(pyrrolidin-3-yloxy)pyridin-3-amine]	37.5
